According to patent US5312919A, “Photooxidation products and derivatives thereof of merocyanine-540, their preparation and uses” (priority 1992, dated 1994):
Where two headings read alike, the source gives them in different places.

How the values were obtained:
Format in all cases: cell-based
[1] = system: C-33A (carcinoma cervix, human); assay: Inhibition of cell proliferation, C-33A (MTT assay); conditions: for inhibition at 1.56 µg/mL: 1.56 μg/ml; for inhibition at 1.56 µg/mL / inhibition at 3.13 µg/mL / inhibition at 6.25 µg/mL / inhibition at 12.5 µg/mL: read-out: % inhibition of cell proliferation; for inhibition at 3.13 µg/mL: 3.13 μg/ml; for inhibition at 6.25 µg/mL: 6.25 μg/ml; for inhibition at 12.5 µg/mL: 12.5 μg/ml; for inhibition at 25 µg/mL: 25.0 μg/ml
Experimental: (§1) Preactivated MC 540 is abbreviated as pMC 540. […] 52: 831-38 (1990); and T. Mosmann, J. Immulog. Methods 65: 55-63 (1983).
(§2) Each cell type (1×10^6 cells/ml; in triplicate) was treated with indicated concentrations of merocil or merodantoin. After overnight (20 hr.) or 5 day incubation periods, the cell viability was determined by MTT assay and calculated as a percentage of untreated controls. The toxicity in vehicle only (cremophor EL) controls was not detectable at highest dose tested.

[2] = system: human immunodeficiency virus (HIV-1); assay: Inactivation of cell free human immunodeficiency virus (viability of MT-4 target cells, MTT assay)
Experimental: as §1
(§3) Cell free human immunodeficiency virus (HIV-1) was either left untreated or treated with indicated doses of Merocil or Merodantoin for one hour at 37° C. and added to MT-4 target cells. After 4 hour incubation at 37° C., the cells were washed three times and further incubated in drug free fresh growth medium (complete RPMI-1640) at 37° C. for 4 days. On day four, 50% of the culture supernatant was replaced with fresh growth medium to prevent cell death due to possible nutrient depletion. The viability of the cell was determined on day 11 by MTT assay. […] The viability of the MT-4 cells was not affected by Merocil or Merodantoin under the experimental conditions described above.

[3] = system: MS 751 (cervix, carcinoma, human); assay: Inhibition of cell proliferation, MS 751 (MTT assay); conditions: for inhibition at 1.56 µg/mL / inhibition at 3.13 µg/mL / inhibition at 6.25 µg/mL / inhibition at 12.5 µg/mL: read-out: % inhibition of cell proliferation
Experimental: as §1, §2

8226 (multiple myeloma) = assay: Inhibition of cell proliferation, 8226 (MTT assay); conditions: 24 hr.
Experimental: as §1
(§4) Each cell type (1×10^6 cells/ml; in triplicate) was treated with indicated concentrations of merocil or merodantoin. […] The cytotoxicity in vehicle only (cremophor EL) controls was not detectable at highest dose tested.

[4] = system: BT-20 (breast, adenocarcinoma); assay: Inhibition of cell proliferation, BT-20 (MTT assay); conditions: Homo sapiens; for inhibition at 1.56 µg/mL: 1.56 μg/ml; for inhibition at 1.56 µg/mL / inhibition at 3.13 µg/mL / inhibition at 6.25 µg/mL / inhibition at 12.5 µg/mL: read-out: % inhibition of cell proliferation; for inhibition at 3.13 µg/mL: 3.13 μg/ml; for inhibition at 6.25 µg/mL: 6.25 μg/ml; for inhibition at 12.5 µg/mL: 12.5 μg/ml; for inhibition at 25 µg/mL: 25.0 μg/ml
Source text: Preactivated MC 540 is abbreviated as pMC 540. […] 52: 831-38 (1990); and T. Mosmann, J. Immulog. Methods 65: 55-63 (1983). […]

[5] = system: human Burkitt lymphoma Daudi cells; assay: Cytotoxic effects on human Burkitt lymphoma Daudi cells (MTT assay)
Experimental: Human Burkitt Lymphoma Daudi cells (1×10^6 cells/ml) were treated with different concentrations of Merodantoin. After overnight incubation at 37° C., the tumor cells kill was determined by MTT assay.
Human Burkitt Lymphoma Daudi cells (1×10^6 cells/ml) were treated with different concentrations of Merocil. After overnight incubation at 37° C., the tumor cells kill was determined by MTT assay.
Each cell type (1×10^6 cells/ml; in triplicate) was treated with indicated concentrations of Merocil or Merodantoin. After overnight (20 hr.) or 5 day incubation periods, the cell viability was determined by MTT assay and calculated as a percentage of untreated controls.

certain tumor cells = assay: Inhibition of proliferation of tumor cells (overall conclusion)
Source text: as §1

[6] = system: normal human peripheral blood mononuclear cells; assay: Cytotoxicity on normal human peripheral blood mononuclear cells (trypan blue dye exclusion); conditions: doses of Table 1
Experimental: (§5) Preactivated MC 540 is abbreviated as pMC 540.
(§6) Merocil and Merodantoin were dissolved in cremophor EL whereas pMC 540 was prepared in 10% aqueous ethanol. […] Fresh human peripheral mononucleas cells (1×10^6 cells/ml) were treated with indicated concentration of compounds. After overnight incubation at 37° C., cell viability was determined by trypan blue dye exclusion method.

[7] = as above; conditions: human, peripheral blood mononuclear cells, overnight, 37° C., read-out: % cell kill (mean ± S.E.M.)
Experimental: as §5, §6

[8] = system: H.S. Sultan (multiple myeloma); assay: Inhibition of cell proliferation, H.S. Sultan (MTT assay); conditions: 24 hr.
Experimental: as §1, §4

[9] = system: DU 145 (prostate, carcinoma, human); assay: Inhibition of cell proliferation, DU 145 (MTT assay); conditions: for inhibition at 1.56 µg/mL / inhibition at 3.13 µg/mL / inhibition at 6.25 µg/mL / inhibition at 12.5 µg/mL: read-out: % inhibition of cell proliferation
Experimental: as §1, §2

MT-4 cells = assay: Effect on viability of MT-4 cells; conditions: experimental conditions of Table 8
Experimental: as §3

[10] = 1.56 μg/ml, read-out: % inhibition of cell proliferation
[11] = 3.13 μg/ml, read-out: % inhibition of cell proliferation
[12] = 6.25 μg/ml, read-out: % inhibition of cell proliferation
[13] = 12.5 μg/ml, read-out: % inhibition of cell proliferation

## CCCCN1C(=O)C(=O)N(CCCC)C1=S [Merodantoin, N,N'-Dibutyl-2-thio-4,5-imidazolindion]
[1]; 20 hr.
  inhibition at 1.56 µg/mL: 16%
  inhibition at 3.13 µg/mL: 29%
  inhibition at 6.25 µg/mL: 36%
  inhibition at 12.5 µg/mL: 49%
  inhibition at 25 µg/mL: 56%
[1]; 120 h, 5 days
  inhibition at 1.56 µg/mL: 11%
  inhibition at 3.13 µg/mL: 34%
  inhibition at 6.25 µg/mL: 86%
  inhibition at 12.5 µg/mL: 63%
  inhibition at 25 µg/mL: 91%
[2]; 75 μg/ml dose
  inactivation of cell free HIV: virtually complete inactivation of the virus
[2]; Human immunodeficiency virus 1, MT4, 264 h, MT-4 cells + HIV treated with 25 μg/ml, one hour 37° C., day 11, untreated HIV-1 36.75
  viability at 25 µg/mL: 73.5%
[2]; Human immunodeficiency virus 1, MT4, 264 h, MT-4 cells + HIV treated with 50 μg/ml, one hour 37° C., day 11, untreated HIV-1 36.75
  viability at 50 µg/mL: 94.3%
[2]; Human immunodeficiency virus 1, MT4, 264 h, MT-4 cells + HIV treated with 75 μg/ml, one hour 37° C., day 11, untreated HIV-1 36.75
  viability at 75 µg/mL: 102%
[2]; conclusion
  inactivating human immunodeficiency virus (HIV-1): effective
[3]; MS751, 1.56 μg/ml, 20 hr.
  inhibition at 1.56 µg/mL: 8%
[3]; MS751, 3.13 μg/ml, 20 hr.
  inhibition at 3.13 µg/mL: 24%
[3]; MS751, 6.25 μg/ml, 20 hr.
  inhibition at 6.25 µg/mL: 20%
[3]; MS751, 12.5 μg/ml, 20 hr.
  inhibition at 12.5 µg/mL: 28%
[3]; MS751, 25.0 μg/ml, 20 hr.
  inhibition at 25 µg/mL: 41%
[3]; MS751, 120 h, 1.56 μg/ml, 5 days
  inhibition at 1.56 µg/mL: 11%
[3]; MS751, 120 h, 3.13 μg/ml, 5 days
  inhibition at 3.13 µg/mL: 23%
[3]; MS751, 120 h, 6.25 μg/ml, 5 days
  inhibition at 6.25 µg/mL: 66%
[3]; MS751, 120 h, 12.5 μg/ml, 5 days
  inhibition at 12.5 µg/mL: 90%
[3]; MS751, 120 h, 25.0 μg/ml, 5 days
  inhibition at 25 µg/mL: 100%
8226 (multiple myeloma); [10]
  inhibition at 1.56 µg/mL: 20%
8226 (multiple myeloma); [11]
  inhibition at 3.13 µg/mL: 16%
8226 (multiple myeloma); [12]
  inhibition at 6.25 µg/mL: 20%
8226 (multiple myeloma); [13]
  inhibition at 12.5 µg/mL: 30%
8226 (multiple myeloma); 25.0 μg/ml
  inhibition at 25 µg/mL: 46%
[4]; BT-20, 96 h, 4 days
  inhibition at 1.56 µg/mL: 19%
  inhibition at 3.13 µg/mL: 52%
  inhibition at 6.25 µg/mL: 20%
  inhibition at 12.5 µg/mL: 12%
  inhibition at 25 µg/mL: 73%
[4]; BT-20, 48 hr.
  inhibition at 1.56 µg/mL: 0%
  inhibition at 3.13 µg/mL: 0%
  inhibition at 6.25 µg/mL: 0%
  inhibition at 12.5 µg/mL: 8%
  inhibition at 25 µg/mL: 26%
[5]; 25 μg/ml
  growth inhibition of cultured Daudi lymphoma cells: virtually complete growth inhibition
[5]; Homo sapiens, Daudi, 1.56 μg/ml, overnight, 37° C., read-out: % Cell Kill (means ± S.D.)
  cytotoxicity at 1.56 µg/mL: 2.75 ± 3.2%
[5]; Homo sapiens, Daudi, 3.13 μg/ml, overnight, 37° C., read-out: % Cell Kill (means ± S.D.)
  cytotoxicity at 3.13 µg/mL: 6.25 ± 2.99%
[5]; Homo sapiens, Daudi, 6.25 μg/ml, overnight, 37° C., read-out: % Cell Kill (means ± S.D.)
  cytotoxicity at 6.25 µg/mL: 9.75 ± 1.71%
[5]; Homo sapiens, Daudi, 12.50 μg/ml, overnight, 37° C., read-out: % Cell Kill (means ± S.D.)
  cytotoxicity at 12.5 µg/mL: 42 ± 8.68%
[5]; Homo sapiens, Daudi, 25.00 μg/ml, overnight, 37° C., read-out: % Cell Kill (means ± S.D.)
  cytotoxicity at 25 µg/mL: 100%
Certain tumor cells
  inhibiting the proliferation of certain tumor cells: effective
[6]
  toxicity to normal human peripheral blood mononuclear cells: relatively non-toxic
[7]; 1.56 μg/ml
  cytotoxicity: 4.33 ± 1.07%
[7]; 3.13 μg/ml
  cytotoxicity: 3.67 ± 0.51%
[7]; 6.25 μg/ml
  cytotoxicity: 5.33 ± 0.84%
[7]; 12.5 μg/ml
  cytotoxicity: 11.3 ± 1.83%
[7]; 25.0 μg/ml
  cytotoxicity: 25.7 ± 0.51%
[8]; [10]
  inhibition at 1.56 µg/mL: 18%
[8]; [11]
  inhibition at 3.13 µg/mL: 34%
[8]; [12]
  inhibition at 6.25 µg/mL: 54%
[8]; [13]
  inhibition at 12.5 µg/mL: 77%
[8]; 25.0 μg/ml
  inhibition at 25 µg/mL: 87%
[9]; DU-145, 1.56 μg/ml, 20 hr.
  inhibition at 1.56 µg/mL: 0%
[9]; DU-145, 3.13 μg/ml, 20 hr.
  inhibition at 3.13 µg/mL: 1%
[9]; DU-145, 6.25 μg/ml, 20 hr.
  inhibition at 6.25 µg/mL: 8%
[9]; DU-145, 12.5 μg/ml, 20 hr.
  inhibition at 12.5 µg/mL: 9%
[9]; DU-145, 25.0 μg/ml, 20 hr.
  inhibition at 25 µg/mL: 11%
[9]; DU-145, 120 h, 1.56 μg/ml, 5 days
  inhibition at 1.56 µg/mL: 54%
[9]; DU-145, 120 h, 3.13 μg/ml, 5 days
  inhibition at 3.13 µg/mL: 85%
[9]; DU-145, 120 h, 6.25 μg/ml, 5 days
  inhibition at 6.25 µg/mL: 99%
[9]; DU-145, 120 h, 12.5 μg/ml, 5 days
  inhibition at 12.5 µg/mL: 100%
[9]; DU-145, 120 h, 25.0 μg/ml, 5 days
  inhibition at 25 µg/mL: 100%
MT-4 cells
  viability of the MT-4 cells: not affected
